# The SangsterLogP compilation
# Assay: method code SF-AS, from DOI: 10.1248/cpb.22.2064
# Details: pH 7.4
row,SMILES,logD
1,Cc1c(N(C)C)c(=O)[nH]c(=O)n1C1CCCCC1,2.53
2,Cc1c(NCC(C)C)c(=O)n(-c2ccccc2)c(=O)n1-c1ccccc1,2.4
3,Cc1c(N(C)C)c(=O)n(C2CCCCC2)c(=O)n1C,3.02
4,Cc1c(NCC(C)C)c(=O)n(-c2ccccc2)c(=O)n1C1CCCCC1,3.27
5,Cc1c(N(C)C)c(=O)n(C2CCCC2)c(=O)n1C,2.65
6,Cc1c(N(C)C)c(=O)n(Cc2ccccc2)c(=O)n1C,2.47
7,Cc1c(N(C)C)c(=O)n(C)c(=O)n1C1CCCCC1,2.94

# The remaining lines, values ahead:
row,logD,SMILES
1,1.44,Cc1c(N2CCOCC2)c(=O)n(-c2ccccc2)c(=O)n1-c1ccccc1
2,2.37,Cc1c(N2CCOCC2)c(=O)n(-c2ccccc2)c(=O)n1C1CCCCC1
3,3.24,Cc1c(N2CCCCC2)c(=O)n(-c2ccccc2)c(=O)n1-c1ccccc1
4,3.68,Cc1c(N2CCCCC2)c(=O)n(C)c(=O)n1C1CCCCC1
5,3.55,Cc1c(N2CCCC2)c(=O)n(C)c(=O)n1C1CCCCC1
6,3.21,Cc1c(N2CCCCC2)c(=O)n(C)c(=O)n1-c1ccccc1
7,2.68,Cc1c(N2CCCC2)c(=O)n(C)c(=O)n1-c1ccccc1
